Source: the NIST ThermoML archive (doi:10.1016/j.tca.2014.05.028)

Experiment: xn = mol fraction of the nth substance listed
Settings: 101 kPa, Liquid; for viscosity: Falling or rolling sphere viscometry; for mass density: Vibrating tube method

CCCC[N+]1(C)CCCC1.[Br-] [1-butyl-1-methylpyrrolidinium bromide] + O
Settings	mass density, 323.15 K [kg/m3]	mass density, 328.15 K [kg/m3]	mass density, 333.15 K [kg/m3]	mass density, 338.15 K [kg/m3]	mass density, 343.15 K [kg/m3]	viscosity, 323.15 K [mPa·s]	viscosity, 328.15 K [mPa·s]	viscosity, 333.15 K [mPa·s]	viscosity, 338.15 K [mPa·s]	viscosity, 343.15 K [mPa·s]
x1 = 0.0265	1037.05	1034.23	1031.32	1028.4	1024.59	0.879	0.782	0.705	0.649	0.586
x1 = 0.0561	1078.21	1074.97	1071.61	1068.07	1065.42	1.42	1.244	1.1	0.997	0.887
x1 = 0.0871	1109.15	1105.64	1102.07	1098.46	1094.8	2.234	1.935	1.701	1.536	1.366
x1 = 0.1283	1138.27	1134.62	1130.94	1127.23	1123.48	3.762	3.23	2.817	2.525	2.229
x1 = 0.1645	1156.64	1152.97	1149.27	1145.56	1141.82	5.403	4.572	3.923	3.462	3.005
x1 = 0.2074	1172.59	1168.97	1165.34	1161.68	1158	7.915	6.602	5.554	4.89	4.186
x1 = 0.2525	1185.17	1181.63	1178.06	1174.49	1170.9	11.49	9.462	7.969	6.876	5.839
x1 = 0.28	1191.05	1187.55	1184.04	1180.52	1176.99	13.89	11.38	9.48	8.118	6.858
x1 = 0.3012	1195.06	1191.6	1188.13	1184.65	1181.16	16.27	13.25	10.97	9.372	7.882
x1 = 0.3254	1199.08	1195.67	1192.25	1188.82	1185.37	19.34	15.64	12.89	10.94	9.135
x1 = 1	1201.84	1198.05	1194.28	1190.53	1186.8	–	–	–	–	–
